# Measurements as given in article PMC4580987, “Catalytic site inhibition of insulin-degrading enzyme by a small molecule induces glucose intolerance in mice” (Nature Communications, 2015).
# Tests used:
# hIDE [1] = target: T1, hIDE (Homo sapiens, UniProt P14735); test: In vitro hIDE inhibition of Aβ16–23-based substrate hydrolysis; format: biochemical; conditions: for inhibition at 100 µM: 100 µM (footnote c)
# T1 construct: made in house
# T1 sequence (P14735 1-1019): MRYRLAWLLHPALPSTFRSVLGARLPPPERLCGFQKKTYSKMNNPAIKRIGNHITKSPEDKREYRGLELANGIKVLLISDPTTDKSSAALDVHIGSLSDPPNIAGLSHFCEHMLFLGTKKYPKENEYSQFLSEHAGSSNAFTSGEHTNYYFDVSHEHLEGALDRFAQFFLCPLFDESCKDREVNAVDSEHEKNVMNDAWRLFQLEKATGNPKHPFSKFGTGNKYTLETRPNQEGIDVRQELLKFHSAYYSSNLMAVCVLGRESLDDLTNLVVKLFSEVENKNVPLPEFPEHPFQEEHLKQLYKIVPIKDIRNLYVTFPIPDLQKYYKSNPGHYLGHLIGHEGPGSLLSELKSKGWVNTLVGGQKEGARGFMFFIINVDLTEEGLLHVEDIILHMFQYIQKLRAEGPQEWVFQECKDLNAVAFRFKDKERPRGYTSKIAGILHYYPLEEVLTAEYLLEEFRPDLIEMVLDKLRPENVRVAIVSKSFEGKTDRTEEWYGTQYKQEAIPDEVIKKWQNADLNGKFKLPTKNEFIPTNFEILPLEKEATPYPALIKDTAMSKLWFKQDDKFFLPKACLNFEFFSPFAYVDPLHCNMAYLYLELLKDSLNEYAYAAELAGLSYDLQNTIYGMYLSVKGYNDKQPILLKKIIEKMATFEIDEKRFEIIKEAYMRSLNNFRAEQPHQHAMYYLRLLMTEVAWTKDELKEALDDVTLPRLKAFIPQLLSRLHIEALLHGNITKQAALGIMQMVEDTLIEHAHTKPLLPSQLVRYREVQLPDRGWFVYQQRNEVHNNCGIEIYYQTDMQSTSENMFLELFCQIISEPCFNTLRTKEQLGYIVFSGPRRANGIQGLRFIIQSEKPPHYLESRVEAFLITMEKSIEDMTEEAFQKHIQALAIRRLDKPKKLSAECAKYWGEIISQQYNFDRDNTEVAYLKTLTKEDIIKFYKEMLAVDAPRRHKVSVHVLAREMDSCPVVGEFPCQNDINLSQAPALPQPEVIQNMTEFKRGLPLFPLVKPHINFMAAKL
# Protocol: In vitro IDE activity was measured with a quenched substrate […]. Human recombinant IDE was cloned and purified as previously described. […] All measurements were carried out as 8-point dose response curves and reported as the average of at least three independent measurements. […] Data analysis was performed using Xlfit v 5.0 and GraphPad Prism v 4.0. Nonlinear curve fitting and statistical analysis was done using built-in functions.
# hIDE [2] = target: T1, hIDE; test: In vitro hIDE inhibition of insulin hydrolysis; format: biochemical; conditions: for IC50: full insulin substrate, value (CI 95%), mean of 3 to 10 experiments, read-out: IC50 insulin hydrolysis
# Protocol: The enzymatic activity of hIDE was assayed quantifying the amount of insulin (Actrapid) at the end of the reaction. The quantity of insulin was determined using a Luminex kit (HMHMAG-34K, Millipore). 20 μl of WT IDE in Hepes buffer (50 mM with 100 mM NaCl, pH 7.4) at 1 μg ml^−1 were pre-incubated 10 min at ambient temperature with 20 μl of test compound or vehicle in 96-well microtiter plates (dark, non-binding surface). The reaction was then started by the addition of 40 μl of insulin at 40 nM. The final concentration of hIDE and substrate was 0.25 μg ml^−1 and 20 nM, respectively. Incubations were performed at ambient temperature for 10 min. The reaction was then stopped by addition of 80 μl of 200 mM EDTA. The samples were diluted by a factor of 3, and 15 μl were transferred to 96-well microtiter plates (dark, clear bottom, non-binding surface) containing 15 μl of assay buffer (from Luminex Kit). Fifteen microlitre of insulin magnetic beads were added. Incubation was performed during 16–18 h at 4 °C under agitation. Wells were washed three times and 30 μl of hormone panel antibodies were added. The samples were incubated 30 min at ambient temperature under agitation. 30 μl of strepdavidin-phycoerythrin were added. Incubation was performed 30 min at ambient temperature under agitation. Wells were washed three times and 80 μl of drive fluid were added. The plate was then read with the MagPix apparatus. Data analysis was performed using Xlfit v 5.0 and GraphPad Prism v 4.0. Nonlinear curve fitting and statistical analysis was done using equation 1: […]
# where A is minimum value of y; B is range of y; C is the IC50 value and D is slope factor.
# mice = tested on: mice; design: method as in Maianti et al, Nature 2014; conditions: ref Maianti et al, Nature 2014, cited from earlier work
# hIDE [3] = target: T1, hIDE; test: 19F NMR ligand-observed interaction with the enzyme; format: binding; conditions: 5 μM enzyme
# Protocol: […] The carrier frequency was set at −100 p.p.m. with a spectral window of 40 ppm, and 4,024 scans were recorded per sample, except for the 6.25 μM sample for which 12,288 scans were recorded.
# [4] = tested on: human SY5Y neuroblastoma cells; test: Aβ1–40 secretion by differentiated SH-SY5Y cells (ELISA); format: cell-based; conditions: 10 μM and 30 μM, 48 h
# Protocol: The human neuroblastoma cell lines SH-SY5Y were provided from ATCC (cat. no. crl2266) with a Certificate of Analysis and not checked in the lab for mycoplasma contamination. […] SH-SY5Y were seeded in a 96-well plate at 200,000 cells per cm^2. […] Differentiated cells were then incubated with compounds at 10 μM and 30 μM in presence of 0.1% DMSO.
IC50 (hIDE [1]) [µM],IC50 (hIDE [2]) [µM],Structure (SMILES),further results
> 100,30,O=C(C[C@@H](Cc1ccc2ccccc2c1)n1nncc1CNC(=O)C1CCCCC1)NO [Compound 17],inhibition at 100 µM (hIDE [1]): < 10%
,,NCCCC[C@@H]1NC(=O)/C=C/C(=O)N[C@H](C(N)=O)CCCCNC(=O)[C@@H](Cc2ccc(C(=O)c3ccccc3)cc2)NC(=O)[C@H](CC2CCCCC2)NC1=O [6bK],"glucose tolerance in OGTT, 6bK (mice; IDE dependant, GLP-1 dependant, insulin driven): Improves glucose tolerance in OGTT; glucose tolerance in IPGTT, 6bK (mice; IDE dependant): Impairs glucose tolerance in IPGTT; gluconeogenesis in a pyruvate tolerance test, 6bK (mice): Lowers gluconeogenesis; insulin action in vivo (ITT), 6bK (mice): Augments insulin action in vivo"
> 100,12.1,O=C(C[C@@H](Cc1ccc2ccccc2c1)n1nncc1CNC(=O)c1ccc(F)cc1)NO [Compound 16],inhibition at 100 µM (hIDE [1]): < 10%; 19F NMR signal in the presence of enzyme at 2:1 or 1:1 compound:enzyme ratio (hIDE [3]): signal intensity remains detectable
29,6.5,O=C(C[C@@H](Cc1ccc2ccccc2c1)c1nc(CNC(=O)c2ccc(F)cc2)no1)NO [Compound 12],
80,> 100,O=C(CC(Cc1ccccc1)n1cc(CNC(=O)c2ccc(F)cc2)nn1)NO (centres unmarked) [Compound 19],inhibition at 300 µM (hIDE [2]; 300 µM (footnote d)): 50%
2.8,2,O=C(C[C@H](Cc1ccc2ccccc2c1)n1cc(CNC(=O)c2ccc(F)cc2)nn1)NO [Compound 15],
,,"O=C(O)CN(CCN(CC(=O)O)CC(=O)O)CC(=O)O [EDTA, reference compound]",inhibition of IDE by reference inhibitor (hIDE [1]; 2 mM): 100%
74,9.6,O=C(CC(Cc1ccc2ccccc2c1)c1nc(CNC(=O)c2ccccc2)no1)NO (centres unmarked) [Compound 11],
0.7,0.51,O=C(C[C@@H](Cc1ccc2ccccc2c1)n1cc(CNC(=O)c2ccccc2)nn1)NO [Compound 2],melting point: 192.8 to 194 °C
12,2.3,Cc1ccc(CC(=O)NCc2cn([C@@H](CC(=O)NO)Cc3ccc4ccccc4c3)nn2)cc1 [Compound 7],
5.7,6,O=C(C[C@@H](Cc1ccc2ccccc2c1)n1cc(CNS(=O)(=O)c2ccc(F)cc2)nn1)NO [Compound 9],melting point: 157.1 to 158.7 °C
3.2,0.74,O=C(C[C@@H](Cc1ccc2ccccc2c1)n1cc(CNC(=O)Cc2ccccc2)nn1)NO [Compound 6],
0.8,0.44,O=C(C[C@@H](Cc1ccc2ccccc2c1)n1cc(CNC(=O)C2CCCCC2)nn1)NO [Compound 5],melting point: 176.6 to 177.9 °C
4.5,3.4,COc1ccc(C(=O)NCc2cn([C@@H](CC(=O)NO)Cc3ccc4ccccc4c3)nn2)cc1 [Compound 4],melting point: 178.3 to 179.6 °C
> 100,6.1,Cc1ccc(C(=O)NCc2cn(C(CC(=O)NO)Cc3ccccc3)nn2)cc1 (centres unmarked) [Compound 10],Aβ1–40 in culture supernatants [4]: had no effect; inhibition at 100 µM (hIDE [1]): < 10%; fold less active than 1 against purified IDE (hIDE [2]; relative to compound 1): 100 fold
> 100,30,O=C(O)C[C@@H](Cc1ccc2ccccc2c1)n1cc(CNC(=O)c2ccc(F)cc2)nn1 [Compound 14],
2.7,6.7,Cc1ccc(C(=O)NCc2cn([C@@H](CC(=O)NO)Cc3ccc4ccccc4c3)nn2)cc1 [Compound 3],melting point: 181.7 to 182.6 °C
